Among the data in ChEMBL document CHEMBL1201862, “PubChem BioAssay data set” (2004) are IC50 values, retold here.

Calls of active or inactive are those of the source. Rule as the data show it: actives have a measured IC50 and inactives only a lower limit.

By IC50 is commonly meant the concentration at which inhibition is half-maximal.

Chain of Envelope glycoprotein gp160 (Q6QLK5 whole entry, the tested form may be a part): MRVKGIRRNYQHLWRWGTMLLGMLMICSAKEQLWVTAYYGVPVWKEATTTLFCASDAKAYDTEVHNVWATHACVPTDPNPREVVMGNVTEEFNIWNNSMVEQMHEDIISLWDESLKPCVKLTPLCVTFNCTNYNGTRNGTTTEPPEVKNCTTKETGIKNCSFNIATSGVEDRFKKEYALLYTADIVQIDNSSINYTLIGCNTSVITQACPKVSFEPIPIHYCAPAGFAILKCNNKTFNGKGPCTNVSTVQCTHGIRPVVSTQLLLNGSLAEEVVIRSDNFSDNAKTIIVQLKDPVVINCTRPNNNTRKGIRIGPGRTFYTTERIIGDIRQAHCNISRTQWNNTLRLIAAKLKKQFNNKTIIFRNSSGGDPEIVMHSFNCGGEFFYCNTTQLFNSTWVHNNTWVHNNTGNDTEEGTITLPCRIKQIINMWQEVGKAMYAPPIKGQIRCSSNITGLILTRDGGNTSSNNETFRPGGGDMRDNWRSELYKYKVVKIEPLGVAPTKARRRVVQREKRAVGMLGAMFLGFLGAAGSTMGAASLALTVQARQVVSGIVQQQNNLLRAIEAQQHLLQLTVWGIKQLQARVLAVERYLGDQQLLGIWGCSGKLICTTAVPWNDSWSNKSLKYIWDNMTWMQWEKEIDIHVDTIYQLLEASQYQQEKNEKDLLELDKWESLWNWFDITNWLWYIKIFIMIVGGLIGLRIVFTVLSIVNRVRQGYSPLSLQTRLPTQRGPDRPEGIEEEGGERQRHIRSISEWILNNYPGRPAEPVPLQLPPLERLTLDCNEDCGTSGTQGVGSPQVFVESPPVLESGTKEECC

This assay has as its target Envelope glycoprotein gp160 (Human immunodeficiency virus 1, UniProt Q6QLK5). Kind of assay: inhibitors of HIV fusion peptide binding, primary screen, biochemical, uHTS, fluorescence dequenching (AID 1986).
Consider `O=C(O)c1cc(-c2ccc(/C=C3\NC(=O)N(c4ccc(Cl)cc4)C3=O)o2)ccc1Cl`, for which the IC50 was 22.6 µM (active). In the case of `O=C1NC(=S)N(c2ccc(F)cc2)C(=O)/C1=C\c1ccoc1`, the half-maximal inhibitory concentration (IC50) was 5.78 µM (active).

Consider `CCOc1cc(/C=C2/C(=N)N3C(=NC2=O)SN=C3S(C)(=O)=O)ccc1OS(=O)(=O)c1ccccc1`, for which the half-inhibitory concentration (IC50) is 12.2 µM (active). Consider `Cc1cc(N2C(=O)C(O)=C(C(=O)c3cc4ccccc4o3)C2c2cccc(Br)c2)no1` (stereo not given), for which the IC50 was 16.4 µM (active). The value for `O=c1cc(-c2ccccc2Cl)oc2c(NS(=O)(=O)c3cc(Cl)cc(Cl)c3O)ccc(O)c12` was 9.18 µM (active).
